Results published in ChEMBL document CHEMBL1667816, “Preparation and in vitro screening of symmetrical bis-isoquinolinium cholinesterase inhibitors bearing various connecting linkage--implications for early Myasthenia gravis treatment” (Eur J Med Chem, 2011).

What was measured:
[1] = target: Cholinesterase (Homo sapiens, UniProt P06276); assay: Inhibition of human plasmatic BChE by Lineweaver-Burk plot analysis; type: cell-free, Plasma
[2] = target: T1, Acetylcholinesterase (Homo sapiens, UniProt P22303); assay: Inhibition of human recombinant AChE by Lineweaver-Burk plot analysis
T1 sequence (P22303 whole entry): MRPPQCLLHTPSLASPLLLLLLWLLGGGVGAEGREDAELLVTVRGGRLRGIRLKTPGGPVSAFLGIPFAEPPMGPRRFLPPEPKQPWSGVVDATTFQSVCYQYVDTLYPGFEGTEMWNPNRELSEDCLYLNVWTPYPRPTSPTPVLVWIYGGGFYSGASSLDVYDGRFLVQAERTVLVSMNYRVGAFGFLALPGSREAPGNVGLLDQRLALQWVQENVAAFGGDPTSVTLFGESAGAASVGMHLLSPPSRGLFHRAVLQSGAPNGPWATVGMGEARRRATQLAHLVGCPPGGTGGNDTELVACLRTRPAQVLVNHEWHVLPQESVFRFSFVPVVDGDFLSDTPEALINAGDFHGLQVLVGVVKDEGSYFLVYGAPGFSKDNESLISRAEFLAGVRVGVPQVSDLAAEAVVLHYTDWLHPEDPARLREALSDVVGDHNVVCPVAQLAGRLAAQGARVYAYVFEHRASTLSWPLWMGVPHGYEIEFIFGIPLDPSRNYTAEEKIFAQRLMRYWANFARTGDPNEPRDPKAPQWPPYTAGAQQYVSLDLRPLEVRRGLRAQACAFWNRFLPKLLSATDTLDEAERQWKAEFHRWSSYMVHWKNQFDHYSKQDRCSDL

[3] = target: T1, Acetylcholinesterase
Description: Dissociation constant for enzyme-inhibitor-substrate complex of human recombinant AChE by Lineweaver-Burk plot analysis

[4] = target: T1, Acetylcholinesterase; remark: listed apart in the source
Description: Dissociation constant for enzyme-inhibitor complex of human recombinant AChE by Lineweaver-Burk plot analysis

Cholinesterase, sequence (P06276 whole entry): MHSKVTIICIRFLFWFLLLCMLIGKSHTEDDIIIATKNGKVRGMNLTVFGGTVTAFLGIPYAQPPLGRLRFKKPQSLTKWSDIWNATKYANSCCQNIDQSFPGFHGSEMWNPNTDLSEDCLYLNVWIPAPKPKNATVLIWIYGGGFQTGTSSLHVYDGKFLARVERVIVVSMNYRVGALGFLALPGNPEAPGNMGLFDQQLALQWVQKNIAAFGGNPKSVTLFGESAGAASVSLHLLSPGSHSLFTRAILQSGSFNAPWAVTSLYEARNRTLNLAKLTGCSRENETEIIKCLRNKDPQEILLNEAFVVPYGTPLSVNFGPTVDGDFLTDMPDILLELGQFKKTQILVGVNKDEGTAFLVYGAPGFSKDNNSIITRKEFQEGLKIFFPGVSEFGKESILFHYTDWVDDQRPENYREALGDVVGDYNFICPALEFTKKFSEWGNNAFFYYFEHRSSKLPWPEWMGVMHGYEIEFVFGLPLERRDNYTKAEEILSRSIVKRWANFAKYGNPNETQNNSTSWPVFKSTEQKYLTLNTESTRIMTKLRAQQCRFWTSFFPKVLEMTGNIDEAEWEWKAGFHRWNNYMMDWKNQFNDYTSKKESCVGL

Row | SMILES | IC50 [1] [µM] | IC50 [2] [µM] | Ki [3] [µM] | Ki [4] [µM]
1 | c1ccc2c[n+](CCCCCCCCC[n+]3ccc4ccccc4c3)ccc2c1 | 0.6 | 0.04 | – | –
2 | c1ccc2c[n+](CCCCCCC[n+]3ccc4ccccc4c3)ccc2c1 | 3 | 0.5 | – | –
3 | c1ccc2c[n+](Cc3ccc(C[n+]4ccc5ccccc5c4)cc3)ccc2c1 | 840 | 12 | – | –
4 | c1ccc2c[n+](CCCCCCCCCC[n+]3ccc4ccccc4c3)ccc2c1 | 1.6 | 0.05 | – | –
5 | c1ccc2c[n+](CCCC[n+]3ccc4ccccc4c3)ccc2c1 | 40 | 36 | – | –
6 | c1ccc2c[n+](Cc3ccc4ccc(C[n+]5ccc6ccccc6c5)cc4c3)ccc2c1 | 4 | 0.3 | 0.75 | 1.25
7 | c1ccc(C[n+]2ccc3ccccc3c2)c(C[n+]2ccc3ccccc3c2)c1 | 0.6 | 250 | – | –
8 | c1ccc2c[n+](C[n+]3ccc4ccccc4c3)ccc2c1 | 1400 | 654 | – | –
9 | c1ccc2c[n+](CCCCCCCCCCCC[n+]3ccc4ccccc4c3)ccc2c1 | 0.1 | 137 | – | –
10 | C(=C\C[n+]1ccc2ccccc2c1)/C[n+]1ccc2ccccc2c1 | 64 | 7 | – | –
11 | c1ccc2c[n+](CCOCC[n+]3ccc4ccccc4c3)ccc2c1 | 51 | 1310 | – | –
12 | c1cc(C[n+]2ccc3ccccc3c2)cc(C[n+]2ccc3ccccc3c2)c1 | 1 | 8 | – | –
13 | c1ccc2c[n+](CCCCC[n+]3ccc4ccccc4c3)ccc2c1 | 0.7 | 13 | – | –
14 | c1ccc2c[n+](CCC[n+]3ccc4ccccc4c3)ccc2c1 | 2600 | 446 | – | –
15 | c1ccc2c[n+](CCCCCC[n+]3ccc4ccccc4c3)ccc2c1 | 2 | 0.3 | – | –
16 | C(=C/C[n+]1ccc2ccccc2c1)/C[n+]1ccc2ccccc2c1 | 25 | 17 | – | –
17 | c1ccc2c[n+](CCCCCCCCCCC[n+]3ccc4ccccc4c3)ccc2c1 | 9 | 0.1 | – | –
18 | c1ccc2c[n+](COC[n+]3ccc4ccccc4c3)ccc2c1 | 154 | 2 | – | –
19 | CC[N+](C)(C)c1cccc(O)c1 [EDROPHONIUM CHLORIDE] | 1370 | – | – | –
20 | C[N+](C)(CCNC(=O)C(=O)NCC[N+](C)(C)Cc1ccccc1Cl)Cc1ccccc1Cl [AMBENONIUM DICHLORIDE] | 6.82 | – | – | –
